Legend:
Assay in all cases: AUC of viability dose-response curve (% viability x log10 dose units); higher = less sensitive
Details in all cases: 48 h
P12-Ichikawa = tested on: P12-Ichikawa
In short: (§1)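 Viability of medium-adapted leukemia cells was measured by CellTiter-Glo One luminescence after 48 h at 37°C with library compounds in DMSO. Doses were 11 threefold steps from 47 μM to 0.79 nM, in 1536-well plates at 500 or 1000 cells/well. Signals were normalised per plate to DMSO and cell-free wells and fitted with a four-parameter log-logistic model on log10 dose. Area under the curve was integrated by trapezoidal rule, with curves exceeding full viability scaled and failed quality-control curves removed.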

SEM cells = tested on: SEM cells
In short: as §1

NOMO1 = tested on: NOMO1
In short: as §1

[1] = RPMI 5 mM glucose + 10% dialyzed FBS

Row | SMILES | AUC of viability dose-response curve (P12-Ichikawa; HPLM + 10% dialyzed FBS) | AUC of viability dose-response curve (P12-Ichikawa; RPMI 5 mM glucose + 10% FBS) | AUC of viability dose-response curve (P12-Ichikawa; [1]) | AUC of viability dose-response curve (SEM cells; HPLM + 10% dialyzed FBS) | AUC of viability dose-response curve (SEM cells; RPMI 5 mM glucose + 10% FBS) | AUC of viability dose-response curve (SEM cells; [1]) | AUC of viability dose-response curve (NOMO1; HPLM + 10% dialyzed FBS) | AUC of viability dose-response curve (NOMO1; RPMI 5 mM glucose + 10% FBS) | AUC of viability dose-response curve (NOMO1; [1])
1 | Cc1nnc(C(C)C)n1[C@@H]1C[C@H]2CC[C@@H](C1)N2CC[C@H](NC(=O)C1CCC(F)(F)CC1)c1ccccc1 | 460 | 454 | 437 | 425 | 379 | 419 | 445 | 411 | 394
2 | O=C(O)c1cccc(-c2noc(-c3ccccc3F)n2)c1 | 470 | 465 | 465 | 454 | 457 | 472 | 456 | 451 | 465
3 | Nc1ncnc2nc(-c3ccc(N4CCOCC4)nc3)cc(-c3cccc(Br)c3)c12 | 460 | 439 | 467 | 470 | 471 | 470 | 463 | 475 | 460
4 | Cc1nc2ccc(CN(C)c3ccc(C(=O)N[C@@H](CCC(=O)O)C(=O)O)s3)cc2c(=O)[nH]1 | 287 | 331 | 321 | 298 | 432 | 295 | 315 | 413 | 305
5 | NC(=O)c1nnn(Cc2cc(Cl)c(C(=O)c3ccc(Cl)cc3)c(Cl)c2)c1N | 463 | 465 | 464 | 471 | 462 | 464 | 465 | 455 | 470
6 | COc1ccc(/C=C/C(=O)Nc2ccccc2C(=O)O)cc1OC | 453 | 458 | 450 | 446 | 438 | 448 | 434 | 455 | 463
7 | Nc1cc(N2CCCCC2)nc(N)[n+]1[O-] | 469 | 468 | 475 | 451 | 451 | 455 | 451 | 461 | 465
8 | O=C(Nc1cccnc1)N1CCC(Cc2cccc(Oc3ccc(C(F)(F)F)cn3)c2)CC1 | 361 | 346 | 344 | 337 | 299 | 303 | 405 | 427 | 425
9 | Cc1nc(-c2ccc(-c3ccc(C(=O)N4CCc5cc6c(cc54)C4(CCN(C)CC4)CO6)cc3)c(C)c2)no1 | 464 | 460 | 447 | 420 | 467 | 439 | 454 | 477 | 449
10 | CN1CCN(CC1)C2=CC3=C([NH]C(=N3)C/4=C(\N)C5=C(F)C=CC=C5NC4=O)C=C2 | 420 | 395 | 399 | 161 | 178 | 152 | 418 | 440 | 433
11 | COCCCC/C(=N\OCCN)c1ccc(C(F)(F)F)cc1 | 400 | 371 | 373 | 389 | 398 | 462 | 358 | 369 | 369
12 | Cc1ccc(C(=O)Nc2ccc([S+](=O)([O-])O)c3cc([S+](=O)([O-])O)cc([S+](=O)([O-])O)c23)cc1NC(=O)c1cccc(NC(=O)Nc2cccc(C(=O)Nc3cc(C(=O)Nc4ccc([S+](=O)([O-])O)c5cc([S+](=O)([O-])O)cc([S+](=O)([O-])O)c45)ccc3C)c2)c1 | 390 | 392 | 381 | 414 | 393 | 373 | 350 | 406 | 396
13 | N#Cc1c(N(CC(=O)[O-])CC(=O)[O-])sc(C(=O)[O-])c1CC(=O)[O-].O.O.O.O.O.O.O.[Sr+2].[Sr+2] | 463 | 458 | 456 | 462 | 467 | 449 | 467 | 472 | 472
14 | CCN(CC)CCCC(C)Nc1ccnc2cc(Cl)ccc12 (configuration not stated) | 416 | 416 | 418 | 477 | 468 | 468 | 382 | 416 | 416
15 | Cc1n[nH]c2ccc(-c3cncc(OC[C@@H](N)Cc4ccccc4)c3)cc12 | 371 | 335 | 355 | 312 | 341 | 347 | 324 | 365 | 348
16 | CC(C)(Sc1cc(C(C)(C)C)c(O)c(C(C)(C)C)c1)Sc1cc(C(C)(C)C)c(O)c(C(C)(C)C)c1 | 445 | 414 | 405 | 385 | 415 | 409 | 449 | 428 | 436
17 | Cc1nnc(C(=O)NC(C)(C)c2nc(C(=O)NCc3ccc(F)cc3)c(O)c(=O)n2C)o1 | 448 | 454 | 465 | 473 | 449 | 465 | 428 | 449 | 470

Row | SMILES | AUC of viability dose-response curve (P12-Ichikawa; HPLM + 10% dialyzed FBS) | AUC of viability dose-response curve (P12-Ichikawa; RPMI 5 mM glucose + 10% FBS) | AUC of viability dose-response curve (P12-Ichikawa; [1]) | AUC of viability dose-response curve (SEM cells; HPLM + 10% dialyzed FBS) | AUC of viability dose-response curve (SEM cells; RPMI 5 mM glucose + 10% FBS) | AUC of viability dose-response curve (SEM cells; [1]) | AUC of viability dose-response curve (NOMO1; HPLM + 10% dialyzed FBS) | AUC of viability dose-response curve (NOMO1; RPMI 5 mM glucose + 10% FBS) | AUC of viability dose-response curve (NOMO1; [1])
18 | COc1cc(N2CCN(C)CC2)ccc1Nc1nc(N)c(C(=O)c2c(Cl)cccc2Cl)s1 | 457 | 454 | 456 | 425 | 422 | 444 | 456 | 467 | 467
19 | CC(C)[C@H](O)C(=O)N[C@@H](C)C(=O)N[C@@H]1C(=O)N(C)CCc2ccccc21 | 447 | 450 | 423 | 431 | 441 | 393 | 444 | 472 | 460
20 | O=C(O)c1cccnc1 | 408 | 426 | 403 | 330 | 360 | 356 | 369 | 402 | 385
21 | COC(=O)[C@H](Cc1ccccc1)NC(=O)[C@@H](N)CC(=O)O | 454 | 459 | 458 | 476 | 472 | 467 | 453 | 461 | 437
22 | N#Cc1cc(NC(=O)Nc2nnc(-c3ccncc3)s2)ccc1-c1cn[nH]c1 | 463 | 452 | 465 | 451 | 462 | 467 | 473 | 476 | 461
23 | O=c1oc2cc(O)ccc2s1 | 466 | 446 | 454 | 462 | 447 | 453 | 439 | 448 | 467
24 | CCc1nc(N)nc(N)c1-c1ccc(Cl)cc1 | 352 | 427 | 389 | 381 | 392 | 399 | 381 | 421 | 427
25 | CN(C[C@@H]1COCCO1)[S+]([O-])(=O)NC2=CC3=C(C=C2)\C=C/C4=C(C=C(C=N4)C5=C[N](C)N=C5)C3=O | 379 | 374 | 357 | 314 | 301 | 292 | 324 | 371 | 355
26 | CCCCN1CCC(CNC(=O)c2c3n(c4ccccc24)CCCO3)CC1 | 461 | 459 | 465 | 431 | 474 | 462 | 474 | 467 | 470
27 | C[C@@H]1CC[C@@]2(CC[C@]3(C)\C(=C/C[C@@H]4[C@@]5(C)C[C@@H](O)[C@H](O)[C@@](C)(CO)[C@@H]5CC[C@@]34C)[C@@H]2[C@H]1C)C(O)=O | 468 | 472 | 460 | 385 | 455 | 295 | 446 | 445 | 468
28 | CCCC[S+](=N)([O-])CCC(N)C(=O)O (configuration not stated) | 453 | 469 | 465 | 459 | 462 | 458 | 441 | 462 | 461
29 | COCC(=O)NC/C=C/c1ccc2ncnc(Nc3ccc(Oc4ccc(C)nc4)c(C)c3)c2c1 | 464 | 437 | 436 | 430 | 460 | 412 | 329 | 372 | 384
30 | CC1(C)CCC(C)(C)c2cc(NC(=O)c3ccc(C(=O)O)cc3)ccc21 | 463 | 470 | 469 | 464 | 465 | 451 | 455 | 445 | 435
31 | Nc1nccc(-c2ccc3noc(-c4ccc(Cl)cc4)c3c2)n1 | 468 | 466 | 470 | 425 | 457 | 462 | 449 | 464 | 469
32 | Clc1ccc(C(c2ccc(Cl)cc2)[n+]2ccn(CC(OCc3ccc(Cl)cc3Cl)c3ccc(Cl)cc3Cl)c2)cc1 (configuration not stated) | 438 | 432 | 444 | 432 | 415 | 440 | 441 | 441 | 440
33 | CO[C@H]1C[C@@H]2CC[C@@H](C)[C@@](O)(O2)C(=O)C(=O)N2CCCC[C@H]2C(=O)O[C@H]([C@@H](C)C[C@@H]2CC[C@@H](O)[C@H](OC)C2)CC(=O)[C@H](C)/C=C(\C)[C@@H](O)[C@@H](OC)C(=O)[C@H](C)C[C@H](C)/C=C/C=C/C=C/1C | 465 | 415 | 443 | 394 | 382 | 409 | 454 | 442 | 466

Source: the supplement of paper PMC11451515
